In publication PMC13619113 (Journal of controlled release : official journal of the …, 2023):

Tests used:
Sprague-Dawley rats [1] = experiment: Blood glucose response after subcutaneous administration; type: in vivo, rat; conditions: subcutaneous 1 IU/kg, fasted Sprague-Dawley rats, Fig. 7
[2] = tested on: 50:50 coculture of Caco-2:HT29-MTX cells
Sprague-Dawley rats [3] = experiment: Blood glucose response after intestinal closed-loop; type: in vivo, rat
[4] = rat, in vivo

Substance	effect on blood glucose level (Sprague-Dawley rats [1])	Papp × 10^−9 (cm/s) [2]	increase of the pharmacological availability over insulin (Sprague-Dawley rats [3]; 50 IU/kg to the small intestine, rat) [times]	AUC [4] [ng·h/mL]	BA (%) [4] [%]	effect on blood glucose level (Sprague-Dawley rats [3]; 50 IU/kg delivered directly to the ileum, Fig. 8)
1KPI: bovine insulin conjugated with 1000 da PEG via PEG nitrophenyl carbonate	effective at reducing the glucose levels below baseline throughout the testing period	3.28 ± 0.88 × 10^−9 cm/s				
2KPI: bovine insulin conjugated with 2000 da PEG via PEG nitrophenyl carbonate, 1:1, at LysB29		2.90 ± 0.86 × 10^−9 cm/s	2.8			
5KPI: bovine insulin conjugated with 5000 da PEG via PEG nitrophenyl carbonate	least effect of the PEGylated insulin samples on blood glucose levels	2.44 ± 0.06 × 10^−9 cm/s				
Bovine insulin	effective at reducing the glucose levels below baseline throughout the testing period			12610 ± 9850	1.064 ± 0.83	limited hypoglycemic response
